Results on one molecule are retold here after patent US20140213559A1, “COMPOSITIONS AND TREATMENTS FOR DYSTROPHIES” (MD PHARMA AB, priority 2011, published 2014).

What all share (format): in vivo, mouse
Data set [1] deals with dy3K/dy3K mice. The data set is described as follows: Body weight measurement. The conditions noted are these: 3-MA treated vs non-injected dy3K/dy3K mice, 4-week-old. The method, then: (§1) Systemic administration was performed by intraperitoneal injection of 3-MA (15 mg/kg) into dy3K/dy3K mice and control littermates at the age of 2.5 weeks and 3.5 weeks. Mice were sacrificed 14 days after injection and quadriceps and tibialis anterior muscles were processed for morphometric analysis, immunofluorescence experiments, qRT-PCR or Western blot analysis. Prior to the euthanasia, an exploratory locomotion test was performed.

The test system of data set [2] is dy3K/dy3K mice. Description: Histology, immunofluorescence and morphometric analysis of muscle after systemic 3-MA injection. Here is the method:
Systemic administration was performed by intraperitoneal injection of 3-MA (15 mg/kg) into dy3K/dy3K mice and control littermates at the age of 2.5 weeks and 3.5 weeks. […] Prior to the euthanasia, an exploratory locomotion test was performed.
Quadriceps and tibialis anterior muscles from wild-type, dy3K/dy3K and injected mice (n=6 for each group) were rapidly dissected after euthanasia and frozen in OCT (Tissue Tek) in liquid nitrogen. Serial sections of […] were either stained with hematoxylin and eosin or processed for immunofluorescence experiments following standard procedures (20) with rabbit polyclonal antibodies directed against LC3B (1/100, #3868, Cell Signaling Technology), laminin γ1 chain (1/1000, #1083), laminin α4 chain (1/400, #1100) and […] (1/400, #1117) generously provided by Dr. T. Sasaki, rat monoclonal antibodies against laminin γ1 chain (1/200, MAB 1914, Chemicon) and tenascin-C (undiluted, MTn15), goat polyclonal antibody against collagen III (1/100, #1330, SouthernBiotech) and mouse monoclonal antibodies against caspase-3 (1/100, CPP32, BD Transduction Laboratory), embryonic myosin heavy chain (F1.652, Developmental Studies Hybridoma Bank) and MyoD (1/100, clone 5.8A Dako). For apoptotic myofiber detection, a TUNEL detection kit was used following instructions of the manufacturer (GenScript). Sections were analyzed using a Zeiss Axioplan fluorescence microscope. Images were captured using an ORCA 1394 ER digital camera with the Openlab 3 software.
Measurements were performed on whole quadriceps or tibialis anterior muscle sections from untreated wild-type and dy3K/dy3K, wild-type and dy3K/dy3K 3-MA injected animals (n=6 for each group). Tenascin-C and collagen III positive areas, eMHC positive fibers, caspase-3 positive fibers, TUNEL-positive myonuclei and fiber diameters were measured using the imageJ software. Minimal Feret's diameter was measured (41) for at least 1500 fibers for each mouse. The same number of fibers was used for quantification of fibers with centrally located nuclei. Wet quadriceps muscle weights were determined from 7 uninjected wild-type or dy3K/dy3K and 3-MA treated wild-type (n=4) and dy3K/dy3K (n=6) animals and correlated to body weight.

Another data set concerns Akt. Description: Akt phosphorylation in quadriceps muscle, Western blot. The note with it: dy3K/dy3K quadriceps. The method, then: as §1
Isolated quadriceps muscles were obtained from 6 wild-type, 6 dy3K/dy3K mice (3.5 weeks of age) and 6 dy3K/dy3K mice 48 h or 14 days after 3-MA injection. Each sample was immediately frozen in liquid nitrogen and reduced to powder using a mortar. Protein extracts were obtained as previously described (16). A total of […] of denaturated protein was loaded on 10-20% acrylamide SDS-gels (Clearpage, CBS Scientific) and blotted onto nitrocellulose membranes (Hybond-C, Amersham) during 1.5 hour (Biorad). The membranes were blocked for one hour at RT in PBS, 0.01% Tween-20, 5% milk and incubated overnight at 4° C. with rabbit polyclonal antibodies directed against pAkt (Ser 473, 1/2000, #4060 or Thr 308, 1/1000, #2965, Cell Signaling Technology), Akt (1/1000, #4685, Cell Signaling Technology), Vps34 (1/200, V9764, Sigma) or LC3B (1/250, #2775, Cell Signaling Technology). […]
On the technique in general: Immunoblotting shows a protein as a band on a membrane.

The subject of another data set is wild-type mice. Description: Hind leg paralysis observation in injected wild-type mice. The conditions noted are these: 3-MA injected wild-type mice. The method, then: as §1
The test system of data set [3] is dy3K/dy3K mice. Description: Survival curves. The note with it: two systemic injections of 3-MA, 22 days for non-treated. The method, then: as §1
Death was monitored in 3-MA injected dy3K/dy3K mice (n=9). A survival curve was constructed using the GraphPad Prism 4 software.

In data set [4] the test system is dy3K/dy3K mice. Description: Exploratory locomotion, open field test. The note with it: 3-MA injected dy3K/dy3K mice, 14 days after injection, 5 min. Here is the method:
as §1
Exploratory locomotion was examined in an open field test. In each experiment, the mouse 14 days after 3-MA injection (n=11 for dy3K/dy3K and wild-type, respectively) was placed into a new cage and allowed to explore the cage for 5 min. The time that the mouse spent moving around was measured manually.

Data set [5] deals with autophagy-related genes (LC3B, Cathepsin L, Lamp2a, Gabarapl1, Atg4b, Vps34, Beclin). Description: Expression of autophagy-related genes in quadriceps muscle after systemic 3-MA injection (qRT-PCR, Western blot, immunofluorescence). The conditions noted are these: dy3K/dy3K mice, 3-MA 15 mg/kg intraperitoneal at 2.5 and 3.5 weeks, 14 days post-injection. Here is the method:
as §1
Total RNA was extracted from 10 mg quadriceps muscle of 6 dy3K/dy3K mice (3.5-week-old) and 6 WT littermates and 5 WT and 5 dy3K/dy3K mice treated with 3-MA using RNeasy mini kit (Qiagen) including an initial step of proteinase K digestion (Fermentas, 240 ng/μl). […] Quantitative PCRs were performed in triplicate with the Maxima SYBR Green qPCR Master Mix (Fermentas). Expression of target and reference genes was monitored using a real-time qRT-PCR method (Light Cycler, Roche) with the previously described primers for the autophagic genes LC3B, Cathepsin L, Lamp2a, Gabarapl1, Atg4b, Vps34 and Beclin (8). The amplification efficiency for each primer pair was evaluated by amplification of serially diluted template cDNAs ([…]). Efficiency corrected RNA levels (in arbitrary units) were calculated by using the formula E^−Ct. Expression levels were then calculated relative to the endogenous control gene GAPDH and relative to wild-type quadriceps. […]

The subject of data set [6] is dy3K/dy3K mice. The data set is described as follows: Peripheral neuropathy / hind leg paralysis observation. The note with it: 3-MA treated dy3K/dy3K mice. Here is the method: as §1
[7] abbreviates: 3-MA injected dy3K/dy3K mice, quadriceps.
Where [8] appears, read: 3-MA injected vs non-injected dy3K/dy3K mice, quadriceps, 14 days post-injection.
Where [9] appears, read: 3-MA treated dy3K/dy3K mice, quadriceps, 14 days.

Turning to `Cn1cnc(N)c2ncnc1-2` [3-MA, 3-methyladenine], the body weight entry in the data set on dy3K/dy3K mice [1] is “weighed significantly more”. In addition, in the data set on dy3K/dy3K mice [2] (setting [7]), the “amount of MyoD1 positive nuclei” value is given as “increased”, the “number of cells with centrally located nuclei” value is on record as “slightly but significantly elevated” and the “proportion of fibers expressing eMHC” value is on record as “significantly increased”. The “ratio of quadriceps muscle wet weight per body weight” value with dy3K/dy3K mice [2] (3-MA injected vs age-matched non-injected dy3K/dy3K mice) is on record as “normalized”. Further, in the data set with dy3K/dy3K mice [2] (setting [8]), the “Collagen III expression (fibrosis)” value is reported as “reduced” and the “tenascin-C expression (fibrosis)” value was “reduced”. The “proportion of TUNEL-positive myonuclei” value in the data set on dy3K/dy3K mice [2] (3-MA treated dy3K/dy3K animals, quadriceps) is on record as “significantly reduced”. In addition, in the data set with dy3K/dy3K mice [2] (setting [9]), the “expression of laminin 132 chain” value is on record as “near normal” and the “expression of laminin α4 chain” value is on record as “near normal”. In addition, the muscle morphology result in the data set with dy3K/dy3K mice [2] (dy3K/dy3K mice, 3-MA 15 mg/kg intraperitoneal at 2.5 and 3.5 weeks, 14 days post-injection) is reported as “considerably improved muscle morphology”. Moreover, the caspase-3 positive fibers result with dy3K/dy3K mice [2] (dy3K/dy3K mice, forty-eight hours after 3-MA injection) is “same proportion as in non-injected dy3K/dy3K mice”. Also, the “proportion of caspase 3 positive fibers” value in the data set with dy3K/dy3K mice [2] (dy3K/dy3K quadriceps, 14 days after injection) is “significantly decreased”. Also, in the data set with dy3K/dy3K mice [2] (quadriceps, dy3K/dy3K mice upon 3-MA injection), the average fibre diameter entry was “increased”. In addition, in the data set with dy3K/dy3K mice [2] (wild-type and dy3K/dy3K injected animals), the “fibre size distribution in quadriceps muscle” value is on record as “significantly shifted towards larger fibres”. Moreover, in the data set with Akt (48 h after injection), the “Akt phosphorylation on threonine 308 and serine 473” value is listed as “restored to wild-type levels”. In addition, the “Akt phosphorylation on threonine 308 and serine 473” value with Akt (14 days after injection) was “restored to wild-type levels”. Also, the hind leg paralysis result in the data set on wild-type mice is listed as “not in 3-MA injected wild-type mice”. Besides, the median survival in the data set with dy3K/dy3K mice [3] is 37 days. Further, in the data set with dy3K/dy3K mice [4], the “activity in an open field test (exploratory locomotion)” value was “same level of activity as wild-type animals”. Also, the “expression of the autophagy-related genes” value in data set [5] is given as “restored the expression of the autophagy-related genes to the basal level”. In the data set on dy3K/dy3K mice [6], the “pathology of the peripheral nerve” value was “did not appreciably improve”. In the data set with dy3K/dy3K mice [6] (similar in non-treated dy3K/dy3K mice), the hind leg paralysis result is recorded as “transient hind leg paralysis often occurred in one leg”.
